The text below walks through data of ChEMBL document CHEMBL4118098, “Discovery of DS28120313 as a potent orally active hepcidin production inhibitor: Design and optimization of novel 4,6-disubstituted indazole derivatives” (Bioorg Med Chem Lett, 2017).

Data set [1] deals with Serine/threonine-protein kinase 25 (Homo sapiens) (UniProt O00506). Put plainly: Inhibition of YSK (unknown origin) at 0.164 uM relative to control.
In data set [2] the target is Casein kinase I isoform alpha (Homo sapiens) (UniProt P48729). Put plainly: Inhibition of CSNK1A1 (unknown origin) at 0.164 uM relative to control.
Data set [3] has as its target Activated CDC42 kinase 1 (Homo sapiens) (UniProt Q07912). Put plainly: Inhibition of ACK (unknown origin) at 0.164 uM relative to control.
Data set [4] deals with Serine/threonine-protein kinase BRSK2 (Homo sapiens) (UniProt Q8IWQ3). Put plainly: Inhibition of BRSK2 (unknown origin) at 0.164 uM relative to control.
Data set [5] in a line: Tmax in C57BL/6J mouse at 30 mg/kg, po by LC-MS/MS analysis. The format is ADME, organism-based. The settings on record: in vivo.
For data set [6], the system named is Tyrosine-protein kinase ABL1 (Homo sapiens), P00519 [T315I]. Kind of data set: Inhibition of Abl T315I mutant (unknown origin) at 0.164 uM relative to control.
The target in data set [7] is MAP/microtubule affinity-regulating kinase 3 (Homo sapiens) (UniProt P27448). Put plainly: Inhibition of c-TAK1 (unknown origin) at 0.164 uM relative to control.
For data set [8], the target named is Macrophage colony-stimulating factor 1 receptor (Homo sapiens) (UniProt P07333). Put plainly: Inhibition of FMS (unknown origin) at 0.164 uM relative to control.
For data set [9], the target named is Cytoplasmic tyrosine-protein kinase BMX (Homo sapiens) (UniProt P51813). Put plainly: Inhibition of BMX (unknown origin) at 0.164 uM relative to control.
The target of data set [10] is Vascular endothelial growth factor receptor 2 (Homo sapiens) (UniProt P35968). Kind of data set: Inhibition of KDR (unknown origin) at 0.164 uM relative to control.
In data set [11] the target is Tyrosine-protein kinase JAK2 (Homo sapiens) (UniProt O60674). Kind of data set: Inhibition of JAK2 (unknown origin) at 0.164 uM relative to control.
In data set [12] the target is Receptor tyrosine-protein kinase erbB-4 (Homo sapiens) (UniProt Q15303). Put plainly: Inhibition of HER4 (unknown origin) at 0.45 uM relative to control.
The target in data set [13] is T1, Serine/threonine-protein kinase D1 (Homo sapiens) (UniProt Q15139).
T1 sequence (whole entry): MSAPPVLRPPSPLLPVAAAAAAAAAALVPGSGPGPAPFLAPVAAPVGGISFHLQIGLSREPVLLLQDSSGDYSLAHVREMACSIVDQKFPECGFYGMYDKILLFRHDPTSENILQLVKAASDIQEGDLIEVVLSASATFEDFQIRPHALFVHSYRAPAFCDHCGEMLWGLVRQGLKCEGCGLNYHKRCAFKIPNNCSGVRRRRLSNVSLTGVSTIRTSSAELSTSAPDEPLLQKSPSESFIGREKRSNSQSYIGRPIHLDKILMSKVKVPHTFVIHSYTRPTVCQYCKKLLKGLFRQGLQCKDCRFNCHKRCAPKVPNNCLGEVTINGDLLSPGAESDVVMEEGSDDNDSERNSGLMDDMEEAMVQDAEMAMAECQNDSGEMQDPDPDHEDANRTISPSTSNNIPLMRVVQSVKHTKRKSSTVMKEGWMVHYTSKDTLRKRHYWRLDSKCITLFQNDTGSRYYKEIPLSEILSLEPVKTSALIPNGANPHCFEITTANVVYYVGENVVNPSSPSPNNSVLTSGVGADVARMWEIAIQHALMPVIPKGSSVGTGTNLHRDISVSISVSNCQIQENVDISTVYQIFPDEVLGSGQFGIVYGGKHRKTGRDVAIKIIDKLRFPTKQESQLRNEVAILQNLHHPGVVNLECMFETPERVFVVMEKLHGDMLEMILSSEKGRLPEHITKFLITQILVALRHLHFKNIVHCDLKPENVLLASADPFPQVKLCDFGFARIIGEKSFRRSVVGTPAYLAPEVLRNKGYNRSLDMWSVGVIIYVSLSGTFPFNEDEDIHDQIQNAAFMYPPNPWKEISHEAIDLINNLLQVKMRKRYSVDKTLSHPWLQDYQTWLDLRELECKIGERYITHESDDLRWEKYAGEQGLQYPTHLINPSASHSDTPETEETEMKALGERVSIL
Put plainly: Inhibition of PKD1 (unknown origin) at 0.45 uM relative to control.

For data set [14], the target named is T2, Serine/threonine-protein kinase DCLK1 (Homo sapiens) (UniProt O15075).
T2 sequence (whole entry): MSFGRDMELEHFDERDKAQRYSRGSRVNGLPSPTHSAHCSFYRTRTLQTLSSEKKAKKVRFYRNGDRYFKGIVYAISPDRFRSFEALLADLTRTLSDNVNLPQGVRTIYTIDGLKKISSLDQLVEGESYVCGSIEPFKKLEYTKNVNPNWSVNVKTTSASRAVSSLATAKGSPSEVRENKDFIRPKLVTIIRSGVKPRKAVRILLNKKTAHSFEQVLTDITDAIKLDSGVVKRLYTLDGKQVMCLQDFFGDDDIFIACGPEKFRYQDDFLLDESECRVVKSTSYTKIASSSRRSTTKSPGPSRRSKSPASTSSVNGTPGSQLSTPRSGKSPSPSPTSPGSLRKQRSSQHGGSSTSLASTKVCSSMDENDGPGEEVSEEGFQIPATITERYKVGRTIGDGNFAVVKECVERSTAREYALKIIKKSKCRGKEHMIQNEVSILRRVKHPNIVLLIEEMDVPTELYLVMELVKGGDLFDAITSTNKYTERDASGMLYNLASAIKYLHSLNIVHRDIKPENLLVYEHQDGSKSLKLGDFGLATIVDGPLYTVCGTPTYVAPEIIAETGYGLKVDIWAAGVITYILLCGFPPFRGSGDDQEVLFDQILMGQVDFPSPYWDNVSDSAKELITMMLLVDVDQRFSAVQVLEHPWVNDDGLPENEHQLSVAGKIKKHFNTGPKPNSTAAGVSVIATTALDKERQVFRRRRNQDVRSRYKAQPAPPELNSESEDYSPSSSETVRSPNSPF
Kind of data set: Inhibition of DCAMKL1 (unknown origin) at 0.45 uM relative to control.

In data set [15] the target is Activated CDC42 kinase 1 (Homo sapiens) (UniProt Q07912). Put plainly: Inhibition of ACK (unknown origin) at 0.45 uM relative to control.
Data set [16] deals with Cyclin-dependent kinase 9 (Homo sapiens) (UniProt P50750). Kind of data set: Inhibition of CDK9 (unknown origin) at 0.19 uM relative to control.
In data set [17] the target is Tyrosine-protein kinase Fes/Fps (Homo sapiens) (UniProt P07332). Put plainly: Inhibition of FES (unknown origin) at 0.19 uM relative to control.
In data set [18] the target is Casein kinase I isoform epsilon (Homo sapiens) (UniProt P49674). Put plainly: Inhibition of CK1-epsilon (unknown origin) at 0.19 uM relative to control.
For data set [19], the system named is Mitogen-activated protein kinase 14 (Homo sapiens), Q16539 [T106M]. Put plainly: Inhibition of SAPK2a T106M mutant (unknown origin) at 0.19 uM relative to control.
Data set [20] deals with Serine/threonine-protein kinase PAK 2 (Homo sapiens) (UniProt Q13177). Kind of data set: Inhibition of PAK2 (unknown origin) at 0.19 uM relative to control.
Serine/threonine-protein kinase PAK 2 (Homo sapiens), sequence (Q13177 whole entry): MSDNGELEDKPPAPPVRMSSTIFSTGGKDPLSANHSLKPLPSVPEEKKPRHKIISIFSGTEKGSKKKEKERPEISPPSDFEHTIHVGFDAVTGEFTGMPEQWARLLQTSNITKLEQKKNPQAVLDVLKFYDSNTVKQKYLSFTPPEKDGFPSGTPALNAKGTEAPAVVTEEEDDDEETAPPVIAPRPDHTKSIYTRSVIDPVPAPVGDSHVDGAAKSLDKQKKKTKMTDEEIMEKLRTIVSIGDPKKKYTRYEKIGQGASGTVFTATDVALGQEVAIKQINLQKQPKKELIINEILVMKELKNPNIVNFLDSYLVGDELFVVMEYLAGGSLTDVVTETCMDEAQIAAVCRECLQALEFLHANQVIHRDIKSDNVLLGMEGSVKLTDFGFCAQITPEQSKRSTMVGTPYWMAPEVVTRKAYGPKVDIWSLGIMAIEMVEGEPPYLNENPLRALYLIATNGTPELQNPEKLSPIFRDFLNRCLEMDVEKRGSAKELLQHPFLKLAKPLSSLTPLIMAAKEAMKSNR

Activated CDC42 kinase 1 (Homo sapiens), sequence (Q07912 whole entry, looked up): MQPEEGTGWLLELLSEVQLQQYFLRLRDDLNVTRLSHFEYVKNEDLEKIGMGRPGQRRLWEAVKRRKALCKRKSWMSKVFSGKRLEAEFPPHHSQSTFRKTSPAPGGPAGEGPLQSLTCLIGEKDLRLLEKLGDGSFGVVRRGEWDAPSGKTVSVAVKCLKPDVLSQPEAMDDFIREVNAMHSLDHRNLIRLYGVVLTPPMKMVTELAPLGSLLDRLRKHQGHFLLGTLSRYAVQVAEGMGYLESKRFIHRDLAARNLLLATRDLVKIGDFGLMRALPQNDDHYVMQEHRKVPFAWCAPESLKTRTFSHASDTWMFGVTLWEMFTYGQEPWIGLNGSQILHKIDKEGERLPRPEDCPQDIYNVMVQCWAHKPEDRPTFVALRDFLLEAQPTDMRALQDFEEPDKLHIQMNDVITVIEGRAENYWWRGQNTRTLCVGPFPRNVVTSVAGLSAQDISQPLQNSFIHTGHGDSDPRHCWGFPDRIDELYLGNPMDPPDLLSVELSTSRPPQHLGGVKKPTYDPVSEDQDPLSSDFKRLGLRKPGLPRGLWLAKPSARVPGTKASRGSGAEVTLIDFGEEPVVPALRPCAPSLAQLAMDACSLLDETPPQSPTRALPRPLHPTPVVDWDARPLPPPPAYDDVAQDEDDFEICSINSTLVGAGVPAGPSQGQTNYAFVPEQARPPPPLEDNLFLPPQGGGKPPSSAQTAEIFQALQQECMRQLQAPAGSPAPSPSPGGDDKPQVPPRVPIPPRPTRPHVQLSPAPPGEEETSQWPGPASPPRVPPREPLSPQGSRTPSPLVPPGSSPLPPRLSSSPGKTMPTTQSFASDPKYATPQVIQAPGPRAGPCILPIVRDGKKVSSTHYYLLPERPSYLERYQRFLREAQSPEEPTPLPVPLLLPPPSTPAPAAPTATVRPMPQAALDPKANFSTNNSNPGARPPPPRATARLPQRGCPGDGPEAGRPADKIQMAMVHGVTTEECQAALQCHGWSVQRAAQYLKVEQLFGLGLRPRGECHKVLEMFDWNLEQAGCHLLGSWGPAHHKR
Tyrosine-protein kinase Fes/Fps (Homo sapiens), sequence (P07332 whole entry, canonical isoform): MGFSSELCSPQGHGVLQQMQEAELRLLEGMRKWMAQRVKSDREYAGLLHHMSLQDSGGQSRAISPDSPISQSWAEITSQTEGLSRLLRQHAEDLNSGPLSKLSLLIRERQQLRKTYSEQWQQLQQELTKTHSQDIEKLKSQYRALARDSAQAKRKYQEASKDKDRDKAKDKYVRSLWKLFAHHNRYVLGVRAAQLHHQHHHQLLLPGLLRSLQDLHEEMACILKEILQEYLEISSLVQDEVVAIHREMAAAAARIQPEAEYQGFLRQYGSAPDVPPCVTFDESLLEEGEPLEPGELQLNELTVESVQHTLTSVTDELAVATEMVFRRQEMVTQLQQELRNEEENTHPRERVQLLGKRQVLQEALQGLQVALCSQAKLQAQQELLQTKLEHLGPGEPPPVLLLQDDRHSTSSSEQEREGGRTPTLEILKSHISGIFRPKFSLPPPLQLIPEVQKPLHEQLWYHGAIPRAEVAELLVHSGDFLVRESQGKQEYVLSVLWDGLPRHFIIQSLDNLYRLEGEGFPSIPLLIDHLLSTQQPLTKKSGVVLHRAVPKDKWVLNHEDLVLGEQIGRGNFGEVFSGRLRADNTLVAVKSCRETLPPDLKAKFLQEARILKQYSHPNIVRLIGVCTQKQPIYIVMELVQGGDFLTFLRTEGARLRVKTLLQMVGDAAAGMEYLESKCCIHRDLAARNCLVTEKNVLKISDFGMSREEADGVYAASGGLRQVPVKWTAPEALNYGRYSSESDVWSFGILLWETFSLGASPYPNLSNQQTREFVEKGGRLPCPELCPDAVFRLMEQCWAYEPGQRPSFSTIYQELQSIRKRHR
Mitogen-activated protein kinase 14 (Homo sapiens), Q16539 [T106M], sequence (Q16539 whole entry T106M): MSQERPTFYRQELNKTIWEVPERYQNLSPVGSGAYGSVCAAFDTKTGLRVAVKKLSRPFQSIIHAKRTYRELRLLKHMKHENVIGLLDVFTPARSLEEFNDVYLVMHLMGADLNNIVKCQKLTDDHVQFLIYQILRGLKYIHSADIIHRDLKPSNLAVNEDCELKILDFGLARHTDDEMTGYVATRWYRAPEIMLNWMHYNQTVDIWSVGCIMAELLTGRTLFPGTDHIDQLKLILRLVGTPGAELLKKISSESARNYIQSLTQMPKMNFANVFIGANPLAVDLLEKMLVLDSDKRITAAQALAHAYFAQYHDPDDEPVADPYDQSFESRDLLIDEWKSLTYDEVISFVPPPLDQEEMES
Casein kinase I isoform epsilon (Homo sapiens), sequence (P49674 whole entry, looked up, canonical isoform): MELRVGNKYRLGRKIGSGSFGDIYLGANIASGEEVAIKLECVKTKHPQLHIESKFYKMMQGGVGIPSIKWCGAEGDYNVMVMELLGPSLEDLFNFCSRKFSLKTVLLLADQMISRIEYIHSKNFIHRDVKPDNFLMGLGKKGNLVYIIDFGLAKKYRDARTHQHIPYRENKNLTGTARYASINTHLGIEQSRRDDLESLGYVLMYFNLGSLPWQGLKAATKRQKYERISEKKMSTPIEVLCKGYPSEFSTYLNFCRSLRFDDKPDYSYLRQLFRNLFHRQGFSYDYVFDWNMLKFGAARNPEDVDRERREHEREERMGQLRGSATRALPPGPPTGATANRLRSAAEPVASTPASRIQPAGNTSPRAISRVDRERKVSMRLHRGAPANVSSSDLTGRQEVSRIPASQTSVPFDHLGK
Receptor tyrosine-protein kinase erbB-4 (Homo sapiens), sequence (Q15303 whole entry): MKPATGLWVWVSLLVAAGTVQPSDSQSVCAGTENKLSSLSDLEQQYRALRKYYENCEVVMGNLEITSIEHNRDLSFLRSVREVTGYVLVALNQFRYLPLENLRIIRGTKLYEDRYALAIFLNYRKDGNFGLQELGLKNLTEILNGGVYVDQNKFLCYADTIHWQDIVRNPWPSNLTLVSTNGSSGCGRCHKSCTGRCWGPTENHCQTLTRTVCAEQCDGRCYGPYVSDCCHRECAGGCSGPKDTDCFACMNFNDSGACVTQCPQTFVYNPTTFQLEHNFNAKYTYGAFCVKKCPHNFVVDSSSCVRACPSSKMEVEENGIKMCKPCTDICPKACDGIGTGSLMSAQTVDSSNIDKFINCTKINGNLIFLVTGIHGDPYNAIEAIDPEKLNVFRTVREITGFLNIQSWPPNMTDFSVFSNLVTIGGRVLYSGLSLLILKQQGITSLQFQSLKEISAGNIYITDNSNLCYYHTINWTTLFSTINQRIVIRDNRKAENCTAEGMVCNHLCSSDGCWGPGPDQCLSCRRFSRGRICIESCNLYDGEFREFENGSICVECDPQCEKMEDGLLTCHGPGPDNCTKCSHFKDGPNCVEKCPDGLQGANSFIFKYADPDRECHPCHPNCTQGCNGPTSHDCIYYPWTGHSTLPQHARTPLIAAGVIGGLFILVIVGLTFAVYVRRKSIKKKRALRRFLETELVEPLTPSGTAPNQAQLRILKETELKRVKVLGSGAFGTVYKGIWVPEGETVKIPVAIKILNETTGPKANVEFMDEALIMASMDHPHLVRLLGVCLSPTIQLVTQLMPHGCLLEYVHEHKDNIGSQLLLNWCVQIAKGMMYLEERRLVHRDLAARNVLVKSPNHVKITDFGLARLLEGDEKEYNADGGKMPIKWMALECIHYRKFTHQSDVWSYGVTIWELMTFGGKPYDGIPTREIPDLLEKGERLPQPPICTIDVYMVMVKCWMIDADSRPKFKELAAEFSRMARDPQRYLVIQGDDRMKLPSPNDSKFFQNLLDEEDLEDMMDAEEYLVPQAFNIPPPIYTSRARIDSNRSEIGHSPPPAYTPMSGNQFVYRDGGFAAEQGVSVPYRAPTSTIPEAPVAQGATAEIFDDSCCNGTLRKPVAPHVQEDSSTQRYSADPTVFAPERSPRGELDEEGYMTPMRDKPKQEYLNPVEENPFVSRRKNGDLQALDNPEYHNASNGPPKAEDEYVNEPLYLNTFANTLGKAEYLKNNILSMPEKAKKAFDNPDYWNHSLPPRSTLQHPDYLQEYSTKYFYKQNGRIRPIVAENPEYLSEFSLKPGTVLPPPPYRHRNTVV
Serine/threonine-protein kinase 25 (Homo sapiens), sequence (O00506 whole entry, looked up, canonical isoform): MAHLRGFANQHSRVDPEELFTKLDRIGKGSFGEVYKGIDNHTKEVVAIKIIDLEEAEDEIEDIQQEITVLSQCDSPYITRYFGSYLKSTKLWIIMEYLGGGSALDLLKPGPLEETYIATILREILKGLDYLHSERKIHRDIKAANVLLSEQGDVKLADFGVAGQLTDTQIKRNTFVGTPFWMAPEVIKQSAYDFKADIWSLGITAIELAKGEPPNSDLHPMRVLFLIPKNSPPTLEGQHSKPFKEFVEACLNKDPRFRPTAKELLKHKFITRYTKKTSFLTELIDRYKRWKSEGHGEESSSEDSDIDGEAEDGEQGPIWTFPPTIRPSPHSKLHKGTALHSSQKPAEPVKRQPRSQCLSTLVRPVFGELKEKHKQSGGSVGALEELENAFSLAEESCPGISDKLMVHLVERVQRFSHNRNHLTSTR

Usually inhibition stands for the change of the read-out against control, counted positive when it falls. The Tmax is the time from dosing to the highest level. Regarding `COC(=O)Nc1cc(-c2c(C3CC3)n[nH]c2C)cc2[nH]ncc12`, the inhibition is -2.7% in [1]; 5% in data set [2]; 0.7% in data set [3]; -6.7% in [4]; -3.7% in data set [6]; 2% in [7]. Besides, the inhibition in [8] is -0.7%; in data set [9], 17.7%; in data set [10], 11.7%; in data set [11] it was -4.3%. Moreover, the Tmax in data set [5] was determined as 40.2 min.

Consider `Cc1n[nH]c(C)c1-c1ccc2c(NC(=O)c3ccc(N4CCN(C)CC4)cc3)n[nH]c2c1`, for which the inhibition in data set [12] was -7%; in data set [13], 1.3%; in [14], 0%; in data set [15] it was 13%.

`Cc1[nH]nc(C2CC2)c1-c1ccc2c(-c3ccc(N4CCN(C)CC4)nc3)n[nH]c2c1`: the inhibition is -1% in [16]; -5% in data set [17]; 3.3% in data set [18]; 0.3% in data set [19]; -3% in [20].
